Experiments:
in vitro [1] = conditions: human, liver microsomes
in vitro [2] = conditions: mouse, liver microsomes

**Q.** Which results are given for `Cc1ccc(-c2cc(-c3ccc(OCCCC(F)(F)F)cc3)[nH]c(=O)c2NC(=O)c2ccno2)cc1`?
**A.** remaining at 10 min (in vitro [1]): 64%; remaining at 10 min (in vitro [2]): 27%

— ChEMBL document CHEMBL5321253, “Discovery of novel pyridinones as MGAT2 inhibitors for the treatment of metabolic disorders” (Bioorg Med Chem Lett, 2023)
